Earlier results in patent publication US6974685B2, “High production method of prenyl alcohol using saccharomyces cells” (Toyota Jidosha Kabushiki Kaisha 1, priority 2000, dated 2005).

System: erg mutant of Saccharoinyces cerevisiae
Settings: Curr. Genet., 18, 41-46 (1990)

In the case of `CC(C)=CCCC(C)=CCCC(C)=CCO` [FOH, farnesol], the farnesol production is listed as 1 mg/L.
